Data as given in the supplement of paper PMC10307832.

How the values were obtained:
Experiment in all cases: relative viability (nuclei count vs DMSO), 5 days (fraction); higher = more cells survive
[1] = compound: CC(C)C[C@H](NC(=O)[C@H](Cc1ccccc1)NC(=O)c1cnccn1)B(O)O [Bortezomib] + C[C@]1(O)C[C@@H](c2nc(-c3ccc4ccc(-c5ccccc5)nc4c3)c3c(N)nccn32)C1 [Linsitinib] (partner 1 µM)
Outline: (§1)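 Lung cancer cell lines in 1536-well plates got either a single drug or a fixed anchor-drug dose together with five library-drug doses (not always all listed) in √10 steps, by pin tool, on the day after seeding. Nuclei were counted after 5 days, and relative viability is the treated-to-vehicle ratio of nuclei counts. Values are medians of duplicate plates.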

[2] = compound: COC1=CC(c2cc3ccccc3[nH]2)=N/C1=C\c1[nH]c(C)cc1C [Obatoclax] + COc1cc2c(Oc3ccc(NC(=O)C4(C(=O)Nc5ccc(F)cc5)CC4)cc3F)ccnc2cc1OCCCN1CCOCC1 [Foretinib] (partner 0.25 µM)
Outline: as §1

[3] = compound: CC(C)C[C@H](NC(=O)[C@H](Cc1ccccc1)NC(=O)c1cnccn1)B(O)O [Bortezomib] + CS(=O)(=O)N1CCN(Cc2cc3nc(-c4cccc5[nH]ncc45)nc(N4CCOCC4)c3s2)CC1 [Pictilisib] (partner 1 µM)
Outline: as §1

[4] = compound: COC1=CC(c2cc3ccccc3[nH]2)=N/C1=C\c1[nH]c(C)cc1C [Obatoclax] + Cc1nc(NC(=O)N2CCC[C@H]2C(N)=O)sc1-c1ccnc(C(C)(C)C(F)(F)F)c1 [Alpelisib] (partner 2 µM)
Outline: as §1

Cell Line	relative viability ([1]; first compound 0.0002 µM)	relative viability ([1]; first compound 0.000632 µM)	relative viability ([1]; first compound 0.002 µM)	relative viability ([1]; first compound 0.006325 µM)	relative viability ([1]; first compound 0.02 µM)	relative viability ([2]; first compound 0.01 µM)	relative viability ([2]; first compound 0.03162 µM)	relative viability ([2]; first compound 0.1 µM)	relative viability ([2]; first compound 0.3162 µM)	relative viability ([2]; first compound 1 µM)	relative viability ([3]; first compound 0.0002 µM)	relative viability ([3]; first compound 0.000632 µM)	relative viability ([3]; first compound 0.002 µM)	relative viability ([3]; first compound 0.006325 µM)	relative viability ([3]; first compound 0.02 µM)	relative viability ([4]; first compound 0.01 µM)	relative viability ([4]; first compound 0.03162 µM)	relative viability ([4]; first compound 0.1 µM)	relative viability ([4]; first compound 0.3162 µM)	relative viability ([4]; first compound 1 µM)
NCI-H441	0.497	0.41	0.406	0.343	0.103	0.877	0.925	1.05	0.639	0.612	0.483	0.315	0.35	0.0918	0.102	0.662	0.822	0.632	0.419	0.327
NCI-H460	0.718	0.772	0.91	0.0249	0.0133	0.993	1.01	0.947	0.456	0.157	0.334	0.376	0.435	0.36	0.346	0.509	0.481	0.309	0.0452	0.0244
NCI-H520	1.12	0.991	0.483	0.137	0.143	0.825	0.727	0.944	0.668	0.609	0.269	0.283	0.229	0.184	0.184	0.901	0.953	0.92	0.7	0.835
NCI-H596	0.894	0.813	1.09	0.233	0.18	0.758	0.798	0.823	0.535	0.492	0.513	0.369	0.327	0.15	0.128	0.481	0.437	0.469	0.402	0.401
NCI-H647	1.09	1.28	1.12	0.0274	0.0402	1.14	1.04	1.12	0.935	0.476	0.331	0.287	0.364	0.0521	0.0347	1.09	1.3	0.875	0.265	0.148
NCI-H661	0.62	0.552	0.46	0.311	0.181	0.977	1.03	1.05	0.936	0.763	0.355	0.328	0.435	0.335	0.225	0.643	0.507	0.261	0.458	0.84
NCI-H727	0.354	0.289	0.408	0.189	0.0878	1.04	0.628	1.07	0.699	1.08	0.34	0.345	0.329	0.192	0.106	0.575	0.578	0.405	0.475	0.245
NCI-H838	0.995	1.01	0.962	0.142	0.145	1.03	1.11	0.996	1.1	0.858	0.425	0.499	0.556	0.158	0.128	0.968	0.992	0.914	0.822	0.617
